Source: publication doi:10.1101/2021.06.16.448769v1 (bioRxiv, 2021)
Read-outs that look alike come from different tables or passages of the source. One block for each compound: values may come before it. Bridge positions count the residues as written; N and C are the ends. Square brackets hold non-standard residues; d marks the D form. Ends that are not written are not given here. Peptide text beside a SMILES is read from it. * marks the point of attachment. Cam = NC(=O)C*

Target: human C5 (Homo sapiens, UniProt P01031)
Sequence (P01031 19-673 limits assumed): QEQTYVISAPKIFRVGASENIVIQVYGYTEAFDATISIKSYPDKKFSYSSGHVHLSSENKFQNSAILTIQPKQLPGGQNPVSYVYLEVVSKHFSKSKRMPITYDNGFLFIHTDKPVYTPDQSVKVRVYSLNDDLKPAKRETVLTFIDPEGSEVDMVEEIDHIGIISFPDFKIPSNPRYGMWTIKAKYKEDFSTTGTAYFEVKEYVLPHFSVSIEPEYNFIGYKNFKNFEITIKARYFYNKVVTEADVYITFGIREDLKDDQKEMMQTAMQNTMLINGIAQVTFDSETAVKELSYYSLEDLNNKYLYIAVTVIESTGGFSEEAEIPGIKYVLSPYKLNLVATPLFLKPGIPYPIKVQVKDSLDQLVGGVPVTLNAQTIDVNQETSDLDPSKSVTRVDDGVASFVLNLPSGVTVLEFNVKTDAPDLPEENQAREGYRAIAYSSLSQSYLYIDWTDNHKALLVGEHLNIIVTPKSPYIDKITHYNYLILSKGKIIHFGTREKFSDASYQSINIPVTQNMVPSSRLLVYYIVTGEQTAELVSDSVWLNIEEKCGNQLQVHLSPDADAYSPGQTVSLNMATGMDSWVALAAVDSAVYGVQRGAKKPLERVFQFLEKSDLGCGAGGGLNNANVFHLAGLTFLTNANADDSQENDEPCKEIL
Sequence (P01031 678-1676 limits assumed): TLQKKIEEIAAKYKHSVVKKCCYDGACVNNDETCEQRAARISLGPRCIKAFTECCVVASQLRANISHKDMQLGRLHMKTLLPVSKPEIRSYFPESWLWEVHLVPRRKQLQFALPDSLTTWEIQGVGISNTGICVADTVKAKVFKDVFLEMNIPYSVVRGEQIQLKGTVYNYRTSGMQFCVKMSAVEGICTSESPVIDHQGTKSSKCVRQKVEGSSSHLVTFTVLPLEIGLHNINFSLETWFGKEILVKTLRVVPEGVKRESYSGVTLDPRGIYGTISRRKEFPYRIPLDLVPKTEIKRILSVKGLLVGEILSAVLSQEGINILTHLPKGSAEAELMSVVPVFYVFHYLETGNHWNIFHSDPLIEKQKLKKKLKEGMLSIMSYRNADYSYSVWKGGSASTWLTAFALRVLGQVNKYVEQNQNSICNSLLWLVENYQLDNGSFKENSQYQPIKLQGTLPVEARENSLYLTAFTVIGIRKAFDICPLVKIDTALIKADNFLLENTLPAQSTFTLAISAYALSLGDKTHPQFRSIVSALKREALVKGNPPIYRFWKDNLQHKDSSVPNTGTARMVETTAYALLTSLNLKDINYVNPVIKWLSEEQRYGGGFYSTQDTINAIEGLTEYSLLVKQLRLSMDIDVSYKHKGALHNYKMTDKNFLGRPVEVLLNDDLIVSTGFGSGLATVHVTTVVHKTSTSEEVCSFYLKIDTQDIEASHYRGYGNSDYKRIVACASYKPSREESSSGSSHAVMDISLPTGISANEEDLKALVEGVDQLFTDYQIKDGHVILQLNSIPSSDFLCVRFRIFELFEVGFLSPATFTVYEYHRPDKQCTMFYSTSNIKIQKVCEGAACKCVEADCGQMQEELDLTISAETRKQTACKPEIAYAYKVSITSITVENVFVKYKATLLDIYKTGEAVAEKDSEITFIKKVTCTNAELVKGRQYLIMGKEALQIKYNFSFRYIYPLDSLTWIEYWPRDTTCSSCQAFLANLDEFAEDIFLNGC
Assay: SPR multi-cycle kinetics, binding to human C5
Conditions: for fold change in KD relative to parent: relative to the unmodified parent knob domain, Figure 5H
[1] = KD, peptide after reduction and capping of cysteines with iodoacetamide (IAM)
[2] = KD, reduced and IAM-capped knob domains, S4
[3] = reduced and IAM-capped knob domains, S4

Compound: CSCC[C@@H]1NC(=O)[C@@H]2CCCN2C(=O)[C@@H]2CSSC[C@H](NC(=O)[C@H](CCCNC(=N)N)NC(=O)CNC(=O)[C@H](C(C)C)NC1=O)C(=O)N[C@@H](CC(C)C)C(=O)N[C@@H](C)C(=O)N1CCC[C@H]1C(=O)N[C@@H](CCCNC(=N)N)C(=O)N[C@@H](CC(N)=O)C(=O)N[C@@H]([C@@H](C)O)C(=O)N[C@@H](CO)C(=O)N[C@H]1CSSC[C@H](NC(=O)[C@H](Cc3ccccc3)NC(=O)[C@H](CC(=O)O)NC(=O)[C@H](CC(=O)O)NC(=O)[C@H](Cc3c[nH]c4ccccc34)NC(=O)[C@H](CO)NC(=O)[C@H](CCCNC(=N)N)NC(=O)[C@H](Cc3ccc(O)cc3)NC(=O)[C@H](CO)NC(=O)[C@H](Cc3ccccc3)NC(=O)CNC(=O)[C@H](CC(=O)O)NC(=O)[C@@H]3CCCN3C1=O)C(=O)N2 [K149chemFE^cyclic] (cyclo(APRNTSCPDGFSYRSWDDFCCPMVGRCL); disulfide 7-20, 21-27 (inferred); ring closure inferred)
fold change in KD relative to parent: 0.2

Compound: CC[C@H](C)[C@@H]1NC(=O)[C@H](CC(N)=O)NC(=O)[C@H](C(C)C)NC(=O)CNC(=O)[C@@H]2CSSC[C@@H](C(=O)NCC(=O)N[C@@H](Cc3c[nH]cn3)C(=O)N[C@@H](Cc3ccccc3)C(=O)N[C@@H](CC(C)C)C(=O)N[C@@H](CC(N)=O)C(=O)N[C@@H](CO)C(=O)NCC(=O)N3CCC[C@H]3C(=O)N[C@@H](CC(N)=O)C(=O)N[C@H](C(=O)N[C@@H](CO)C(=O)N3CCC[C@H]3C(=O)N[C@@H](Cc3ccc(O)cc3)C(=O)N[C@H](C(=O)N[C@@H](CO)C(=O)N[C@H](C(=O)O)[C@@H](C)O)C(C)C)[C@@H](C)CC)NC(=O)CNC(=O)[C@H](Cc3c[nH]c4ccccc34)NC(=O)[C@H](CCCNC(=N)N)NC(=O)CNC(=O)[C@H](CSSC[C@H](NC(=O)[C@@H](N)[C@@H](C)O)C(=O)N3CCC[C@H]3C(=O)N[C@@H](CCC(=O)O)C(=O)NCC(=O)N[C@@H](Cc3c[nH]c4ccccc34)C(=O)N[C@@H](CO)C(=O)N[C@@H](CCC(=O)O)C(=O)N2)NC(=O)[C@H](CCC(=O)O)NC(=O)[C@H](Cc2ccc(O)cc2)NC(=O)CNC(=O)[C@H](Cc2ccc(O)cc2)NC1=O [K92chemFE A12N] (H-TCPEGWSECGVNIYGYECGRWGCGHFLNSGPNISPYVST-OH; disulfide 2-18, 9-23; N-terminus and C-terminus assumed)
fold change in KD relative to parent: 4.6

Compound: CC[C@H](C)[C@@H]1NC(=O)[C@H](C)NC(=O)[C@H](C(C)C)NC(=O)CNC(=O)[C@@H]2CSSC[C@@H]3NC(=O)CNC(=O)[C@H](Cc4c[nH]c5ccccc45)NC(=O)[C@H](CCCNC(=N)N)NC(=O)CNC(=O)[C@H](CSSC[C@H](NC(=O)[C@H]([C@@H](C)O)NC(=O)[C@H](Cc4ccc(O)cc4)NC(=O)[C@@H]4CCCN4C(=O)[C@H](CO)NC(=O)[C@H]([C@@H](C)CC)NC(=O)[C@H](CC(N)=O)NC(=O)[C@@H]4CCCN4C(=O)CNC(=O)[C@H](CO)NC(=O)[C@H](CC(N)=O)NC(=O)[C@H](CC(C)C)NC(=O)[C@H](Cc4ccccc4)NC(=O)[C@H](Cc4c[nH]cn4)NC(=O)CNC3=O)C(=O)N3CCC[C@H]3C(=O)N[C@@H](CCC(=O)O)C(=O)NCC(=O)N[C@@H](Cc3c[nH]c4ccccc34)C(=O)N[C@@H](CO)C(=O)N[C@@H](CCC(=O)O)C(=O)N2)NC(=O)[C@H](CCC(=O)O)NC(=O)[C@H](Cc2ccc(O)cc2)NC(=O)CNC(=O)[C@H](Cc2ccc(O)cc2)NC1=O [K92chemFE^cyclic] (cyclo(AIYGYECGRWGCGHFLNSGPNISPYTCPEGWSECGV); disulfide 7-27, 12-34)
fold change in KD relative to parent: 39.7

Compound: CC[C@H](C)[C@H](NC(=O)[C@H](C)NC(=O)[C@@H](NC(=O)CNC(=O)[C@H](CSCC(N)=O)NC(=O)[C@H](CCC(=O)O)NC(=O)[C@H](CO)NC(=O)[C@H](Cc1c[nH]c2ccccc12)NC(=O)CNC(=O)[C@H](CCC(=O)O)NC(=O)[C@@H]1CCCN1C(=O)[C@H](CSCC(N)=O)NC(=O)[C@@H](N)[C@@H](C)O)C(C)C)C(=O)N[C@@H](Cc1ccc(O)cc1)C(=O)NCC(=O)N[C@@H](Cc1ccc(O)cc1)C(=O)N[C@@H](CCC(=O)O)C(=O)N[C@@H](CSCC(N)=O)C(=O)NCC(=O)N[C@@H](CCCNC(=N)N)C(=O)N[C@@H](Cc1c[nH]c2ccccc12)C(=O)NCC(=O)N[C@@H](CSCC(N)=O)C(=O)NCC(=O)N[C@@H](Cc1c[nH]cn1)C(=O)N[C@@H](Cc1ccccc1)C(=O)N[C@@H](CC(C)C)C(=O)N[C@@H](CC(N)=O)C(=O)N[C@@H](CO)C(=O)NCC(=O)N1CCC[C@H]1C(=O)N[C@@H](CC(N)=O)C(=O)N[C@H](C(=O)N[C@@H](CO)C(=O)N1CCC[C@H]1C(=O)N[C@@H](Cc1ccc(O)cc1)C(=O)N[C@H](C(=O)N[C@@H](CO)C(=O)N[C@H](C(=O)O)[C@@H](C)O)C(C)C)[C@@H](C)CC [K92 chemFE reduced and capped] (H-TC(Cam)PEGWSEC(Cam)GVAIYGYEC(Cam)GRWGC(Cam)GHFLNSGPNISPYVST-OH; N-terminus assumed)
Kd [1]: 2000 nM | Kd [2]: 2350 nM | koff [3]: 0.000172 s⁻¹ | kon [3]: 72.9 M⁻¹ s⁻¹

Kd (read-out: mean KD, SPR multi-cycle kinetics, mean of n=3): 7.3 nM
Compound: CSCC[C@@H]1NC(=O)[C@@H]2CCCN2C(=O)[C@@H](NC(=O)[C@@H]2CSSC[C@H](NC(=O)[C@@H](N)CO)C(=O)N3CCC[C@H]3C(=O)N[C@@H](CC(=O)O)C(=O)NCC(=O)N[C@@H](Cc3ccccc3)C(=O)N[C@@H](CO)C(=O)N[C@@H](Cc3ccc(O)cc3)C(=O)N[C@@H](CCCNC(=N)N)C(=O)N[C@@H](CO)C(=O)N[C@@H](Cc3c[nH]c4ccccc34)C(=O)N[C@@H](CC(=O)O)C(=O)N[C@@H](CC(=O)O)C(=O)N[C@@H](Cc3ccccc3)C(=O)N2)CSSC[C@@H](C(=O)N[C@@H](CC(C)C)C(=O)N[C@@H](C)C(=O)N2CCC[C@H]2C(=O)N[C@@H](CCCNC(=N)N)C(=O)N[C@@H](CC(N)=O)C(=O)O)NC(=O)[C@H](CCCNC(=N)N)NC(=O)CNC(=O)[C@H](C(C)C)NC1=O [K149chemSD-A] (H-SCPDGFSYRSWDDFCCPMVGRCLAPRN-OH; disulfide 2-15, 16-22; N-terminus assumed)

Compound: CC[C@H](C)[C@H](NC(=O)[C@H](CC(N)=O)NC(=O)[C@@H]1CCCN1C(=O)CNC(=O)[C@H](CO)NC(=O)[C@H](CC(N)=O)NC(=O)[C@H](CC(C)C)NC(=O)[C@H](Cc1ccccc1)NC(=O)[C@H](Cc1c[nH]cn1)NC(=O)CNC(=O)[C@@H]1CSSC[C@@H]2NC(=O)[C@H](CCC(=O)O)NC(=O)[C@H](CO)NC(=O)[C@H](Cc3c[nH]c4ccccc34)NC(=O)CNC(=O)[C@H](CCC(=O)O)NC(=O)[C@@H]3CCCN3C(=O)[C@@H](NC(=O)[C@@H](N)[C@@H](C)O)CSSC[C@H](NC(=O)[C@H](CCC(=O)O)NC(=O)[C@H](Cc3ccc(O)cc3)NC(=O)CNC(=O)[C@H](Cc3ccc(O)cc3)NC(=O)[C@H]([C@@H](C)CC)NC(=O)[C@@H](Cc3c[nH]c4ccccc34)NC(=O)[C@H](C(C)C)NC(=O)CNC2=O)C(=O)NCC(=O)N[C@@H](CCCNC(=N)N)C(=O)N[C@@H](Cc2c[nH]c3ccccc23)C(=O)NCC(=O)N1)C(=O)N[C@@H](CO)C(=O)N1CCC[C@H]1C(=O)N[C@@H](Cc1ccc(O)cc1)C(=O)N[C@H](C(=O)N[C@@H](CO)C(=O)N[C@H](C(=O)O)[C@@H](C)O)C(C)C [K92chemFE A12d-W] (H-TCPEGWSECGV[dW]IYGYECGRWGCGHFLNSGPNISPYVST-OH; disulfide 2-18, 9-23; N-terminus and C-terminus assumed)
fold change in KD relative to parent: 165.6

Compound: GC(Cam)PPGYKSGVDC(Cam)SPGSEC(Cam)KWGC(Cam)YAVDGRRYGGYGADSGVGS-OH [K57chemFE reduced and capped]
Kd [1]: 76 nM | Kd [2]: 75.6 nM | koff [3]: 0.000358 s⁻¹ | kon [3]: 4740 M⁻¹ s⁻¹
